Test results taken from PubChem BioAssay AID449762 (Southern Research Specialized Biocontainment Screening …, 2010).
Inconclusive results are not listed.

Test system: M. tuberculosis H37Rv growth inhibition, 7H9 media
Test: M. tuberculosis growth inhibition, HTS (AID 449762);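 further: bacterial growth assessed after seven days of incubation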
Conditions: for IC90: measured here: IC90 growth inhibition

Structure (SMILES)	IC50 [µM]	IC90 [µM]
COc1cc2c(cc1OC)C1(Nc3c-2c(-c2ccccc2)nn3-c2ccccc2)C(=O)Nc2ccccc21 (stereo not drawn)	90.5	> 100
N[C@@H](CCl)C(=O)O	39.4	58.9
CCc1ccc2nc(N(CCCN(C)C)C(=O)c3ccc(S(=O)(=O)N4CCCc5ccccc54)cc3)sc2c1	28.1	33.9
CC(C)(C)C1CCc2c(sc3nc(SCC(N)=O)nc(N)c23)C1 (stereo not drawn)	15.4	31.8
COCCn1nnnc1C(c1cc2cc(OC)ccc2[nH]c1=O)N1CCC(Cc2ccccc2)CC1 (stereo not drawn)	89.2	99.8
O=C(CCSc1ccccn1)c1ccccc1	10.2	19.1
Cc1ccc(C(=O)n2c(N)nc3ccccc32)cc1	43.8	> 100
O=C1Nc2cc(C(=O)NCCCN3CCOCC3)ccc2S/C1=C/c1cccc(Cl)c1	26.3	41
O=C([O-])c1ccccc1-[n+]1c(-c2ccccc2)cc(-c2ccccc2)cc1-c1ccccc1	15.3	20.5
CCC(C)Nc1ccc(NC(C)CC)cc1 (stereo not drawn)	1.12	1.69
Cn1c(=O)c2c3c(sc2n2c(SCC(N)=O)nnc12)CC(C(C)(C)C)CC3 (stereo not drawn)	19.4	32.9
COCc1cc(=O)[nH]c(Nc2nc3ccccc3o2)n1	1.6	7.06
Cc1cc2c(cc1C)CSC(c1c(O)ccc3ccccc13)SC2	45.3	> 100
N/C(=N\OC(=O)Nc1ccc(Cl)c(Cl)c1)c1ncc(C(F)(F)F)cc1Cl	41.9	45.8
C=CCNC(=S)N/N=C(\C)c1ccccn1	7.07	17.7
Cc1ccc(NC(=O)CSc2nc3ccccc3c(=O)n2CCCN2CCCCC2)cc1Cl	39	55.5
NC(=O)CSc1nnc(COc2ccc3ccccc3c2)o1	1.75	> 100
O=C(c1ccc(CNc2c(N3CCCC3)c(=O)c2=O)cc1)N1CC=C(c2ccccc2)CC1	0.76	0.87
Cc1ccc(C(=O)N2N=C(c3ccc(NS(C)(=O)=O)cc3)CC2c2cccs2)cc1 (stereo not drawn)	12.4	21.2
Cc1nc2scc(-c3cccs3)c2c(=O)n1-n1cccc1	56.1	> 100
CCOC(=O)COc1ccc2c(c1)C(=O)CC(C)(c1cccnc1)O2 (stereo not drawn)	9.2	18.4

Structure (SMILES)	IC50 [µM]	IC90 [µM]
O=[N+]([O-])c1cc(-c2ncccn2)c([N+](=O)[O-])s1	12.9	32.5
Nc1nc(CN2CCN(c3ccccc3F)CC2)nc(N2CCCc3ccccc32)n1	4.99	14
OC(CN1CCCCC1)Cn1c2ccc(Cl)cc2c2cc(Cl)ccc21 (stereo not drawn)	8.94	11.6
CNC(C)C#Cc1ccc2oc3cc(C)c(C)cc3c(=O)c2c1 (stereo not drawn)	4.55	17.9
NN/C(=C\[N+](=O)[O-])Nc1ccc(Cl)cc1	45.9	> 100
O=[N+]([O-])c1cc(-c2nc(-c3ccncc3)no2)cc([N+](=O)[O-])c1	3.64	11.4
O=C(NCCC1=CCCCC1)NC12CC3CC(CC(C3)C1)C2	< 0.2	0.34
CC(C)C[C@H]1C(=O)N2CCC[C@H]2[C@]2(O)O[C@](NC(=O)C3C=C4c5cccc6[nH]c(Br)c(c56)C[C@H]4N(C)C3)(C(C)C)C(=O)N12 (stereo partly drawn)	–	> 100
O=C(OCC(=O)N1CCC(c2ccccc2)=N1)c1ccc(Cl)s1	21.5	> 25
COc1ccccc1N1CCN(CCCCOc2cccc3ccccc23)CC1	34	44.5
COC(=O)/C(=C1/Oc2cc(C)oc(=O)c2S1)C(F)(F)F	6.24	> 100
C/C(=N/NC(=O)c1ccccn1)c1c[nH]c2ccccc12	6.03	11.8
CCc1ccc2c(c1)C1(C(=O)N2)N2CCCC2C(C(=O)c2ccc3ccccc3c2)C12C(=O)Nc1ccccc12 (stereo not drawn)	13.1	30.9
COc1ccc(Cc2nc3ccc(C(=O)NCCCSC)cc3o2)cc1OC	41.1	> 100
Oc1[nH]c2ccccc2c1N=NC(=S)N1CCOCC1	12.3	13.9
CC(C)(O)C#Cc1ccc(C(=O)Nc2ccc3c(c2)OCO3)s1	1.63	> 100
C/C(=C\C(=S)Nc1ccccc1)Nc1ccc2ccccc2c1	40.6	52.9
Cc1ccc(C2C3=C(CC(C)(C)CC3=O)N=C3c4ccccc4C(=O)C32)cc1 (stereo not drawn)	66.4	90.7
CCCCC(=O)Nc1sc2c(c1C(=O)OCC)CCC(C=O)=C2Cl	14.6	44.5
Cc1ccnc(Sc2ccc([N+](=O)[O-])cc2[N+](=O)[O-])n1	7.7	15.1
CC(C)Oc1ccc(-c2nc(NCC3CCCO3)c3ccccc3n2)cc1 (stereo not drawn)	68	91.3

Structure (SMILES)	IC50 [µM]	IC90 [µM]
CNC(CC(C)C)C(=O)NC1C(=O)NC(CC(N)=O)C(=O)NC2C(=O)NC3C(=O)NC(C(=O)NC(C(=O)O)c4cc(O)cc(O)c4-c4cc3ccc4O)C(O)c3ccc(c(Cl)c3)Oc3cc2cc(c3OC2OC(CO)C(O)C(O)C2OC2C[C@](C)(N)C(O)C(C)O2)Oc2ccc(cc2Cl)C1O (stereo partly drawn)	1.01	4.42
Cc1ccc2ccc3ccc(C)nc3c2n1	0.49	1.31
CCOC(=O)C(C)Oc1ccc(OCc2ccccc2)cc1 (stereo not drawn)	4.2	10.9
Cc1ccc(C(=O)N/N=C(/CC(=O)c2cccs2)C(F)(F)F)cc1	2.97	3.28
CC/C(=C(\c1ccc(O)cc1)c1ccc(OCCN(C)C)cc1)c1ccccc1	22.5	35.4
CC[C@@H](C)[C@H](CN[C@H](CNC)C(C)C)NC[C@@H](C)c1ccc(CC(C)C)cc1	11.3	12.6
CO[C@@H]1[C@@H](OC(N)=O)[C@@H](O)C(Oc2ccc3c(O)c(NC(=O)c4ccc(O)c(CC=C(C)C)c4)c(=O)oc3c2C)OC1(C)C (stereo partly drawn)	4.98	9.66
O=c1c2cc(Br)cc(Br)c2oc2nc3n(c(=O)c12)CCCS3	5.87	13.1
COc1ccc(C2c3[nH]c4ccccc4c3CCN2Cc2cccn2-c2ncccn2)cc1C (stereo not drawn)	25.2	28.9
O=C1/C(=C/Nc2ccc3c(c2)OCO3)CCc2ccccc21	72.8	> 100
COc1ccc(N/C=C/C(=O)c2sc(-c3ccccc3)nc2C)cc1	30.8	55.4
Cc1ccc(/C=C2\C(=O)Nc3ccccc32)o1	3.54	6.03
Cc1ccc(S(=O)(=O)NC(CC(C)C)C(=O)N2CCN(C/C=C/c3ccccc3)CC2)cc1 (stereo not drawn)	46.8	52.7
Cc1ccc(-n2nnc3c(=O)oc4ccccc4c32)cc1	< 0.2	19.9
Cc1cc([N+](=O)[O-])c2ccccc2[n+]1[O-]	5.76	9.62
O=c1c(Cl)nc2cc(Cl)ccc2n1CCNc1ncc(C(F)(F)F)cc1Cl	1.3	3.89
CCCCNc1c(-c2ccc(SC3CCCCC3)c(OC)c2)nc2ccc(C)cn12	11.4	12.8
Cc1ccccc1Cn1ccc(=NCc2ccccc2)cc1	4.39	12
COc1ccc(/C=N/Nc2cc(C)nc3ccc(OC)cc23)c(OC)c1	9.39	11.9
O=[N+]([O-])c1ccc(CN2CCN(c3ccc(Cl)cc3)CC2)o1	< 0.2	< 0.2
